In patent US11590137B2, “Ruxolitinib formulation for reduction of itch in atopic dermatitis” (Incyte Corporation, priority 2019, dated 2023):
Like-named read-outs stand apart in the source and are kept apart here.

How the values were obtained:
[1] = Solubility of ruxolitinib free base or 1:1 phosphate salt in potential solvents (HPLC); assay type: physicochemical; details: for solubility at 24 h: thermodynamic from solid; for Solubility: listed as Free Base
Method: First, in order to determine the solubility of ruxolitinib (free base) or its 1:1 phosphate salt, approximately 5 mL of a potential solvent was added to approximately 50 mg of the API or its salt at room temperature. The mixtures were suspended and rotated on a wheel. If the mixtures became clear solutions, more solid material was added. The suspensions were then suspended over 24 hours. The samples were filtered through 0.2 micron filters. The liquid portions were collected and diluted with 50/50 water methanol/water. The concentrations of the diluted samples were analyzed by HPLC. When the free base or salt was fairly insoluble, the results are approximate only.

[2] = test system: patients with moderate-to-severe AD; details: subcutaneous, At Week 16, Solo1 and Solo2 trials, cited from earlier work; for Proportion of patient achieving a 4-point improvement in itch NRS score: itch NRS score of ≥4 at baseline
[3] = 300 mg every other week, first printed value
[4] = 300 mg every other week, second printed value
[5] = 300 mg every week, first printed value
[6] = 300 mg every week, second printed value

Work on `N#CC[C@H](C1CCCC1)n1cc(-c2ncnc3[nH]ccc23)cn1` [ruxolitinib, (R)-3-(4-(7H-pyrrolo[2,3-d]pyrimidin-4-yl)-1H-pyrazol-1-yl)-3-cyclopentylpropanenitrile] yielded a solubility at 24 h ([1]; 0.1 M citric buffer, pH 4, aqueous buffer, pH 4, citric buffer, 0.1M) of 1100 µg/mL, a solubility at 24 h ([1]; 0.1 M citric buffer, pH 6, aqueous buffer, pH 6, citric buffer, 0.1M) of 150 µg/mL and a Solubility ([1]; C12-15 alcohol benzoate) of 0.15 mg/mL. It also gave a Solubility ([1]; Caprylic triglyceride) of 0.15 mg/mL, a Solubility ([1]; Mineral oil) of 0.08 mg/mL and a Solubility ([1]; Olelyl alcohol) of 0.08 mg/mL. The solubility at 24 h ([1]; PEG 200, organic solvent or mixture, PEG 200) was 17400 µg/mL, the solubility at 24 h ([1]; PEG 300, organic solvent or mixture, PEG 300) was 10600 µg/mL and the solubility at 24 h ([1]; Transcutol, organic solvent or mixture) was 7600 µg/mL. For the same compound, the Solubility ([1]; Water/PEG 200 (50/50)) was 17.4 mg/mL, the solubility at 24 h ([1]; benzyl alcohol, organic solvent or mixture) was 2300 µg/mL and the solubility at 24 h ([1]; ethanol, organic solvent or mixture) was 5500 µg/mL. For the same compound, the solubility at 24 h ([1]; glycerin, organic solvent or mixture) was 8300 µg/mL, the solubility at 24 h ([1]; isopropanol, organic solvent or mixture) was 450 µg/mL and the solubility at 24 h ([1]; isosorbide dimethyl ether, organic solvent or mixture) was 300 µg/mL. For the same compound, the solubility at 24 h ([1]; trolamine, organic solvent or mixture) was 38600 µg/mL, the solubility at 24 h ([1]; water, room temperature) was 2000 µg/mL and the solubility at 24 h ([1]; water/glycerin (50/50), aqueous with cosolvent or surfactant or cyclodextrin, Water/glyercin (50/50)) was 15900 µg/mL.
For “dupilumab: a systemic biologic agent; phase 3 trials in moderate-to-severe AD cited for comparison”, the “Proportion of patients achieving EASI-75” value [2, 3] is listed as 44%, the “Proportion of patients achieving IGA-TS” value [2, 3] is listed as 36% and the “Proportion of patients achieving EASI-75” value [2, 4] is listed as 51%. The “Proportion of patients achieving IGA-TS” value [2, 4] was 38%, the “Proportion of patient achieving a 4-point improvement in itch NRS score” value (“Proportion … in itch NRS score” for short) [2, 3] was 36% and the “Proportion … in itch NRS score” value [2, 4] was 41%. For the same compound, the “Proportion of patients achieving EASI-75” value [2, 5] was 48%, the “Proportion of patients achieving IGA-TS” value [2, 5] was 36% and the “Proportion of patients achieving EASI-75” value [2, 6] was 52%. The “Proportion of patients achieving IGA-TS” value [2, 6] was 37%, the “Proportion … in itch NRS score” value [2, 5] was 39% and the “Proportion … in itch NRS score” value [2, 6] was 40%.
For `N#CC[C@H](C1CCCC1)n1cc(-c2ncnc3[nH]ccc23)cn1` [ruxolitinib phosphate], the solubility at 24 h ([1]; C12-15 alcohol benzoate, oil or lipid) was under 200 µg/mL, the solubility at 24 h ([1]; caprylic triglyceride, oil or lipid) was under 200 µg/mL and the solubility at 24 h ([1]; dimethicone, oil or lipid) was under 200 µg/mL. It also gave a solubility at 24 h ([1]; isopropyl myristate, oil or lipid) of under 100 µg/mL, a solubility at 24 h ([1]; mineral oil, oil or lipid) of under 100 µg/mL and a solubility at 24 h ([1]; oleyl alcohol, oil or lipid, Olelyl alcohol) of 100 µg/mL. For the same compound, the solubility at 24 h ([1]; propylene glycol, organic solvent or mixture) was 24000 µg/mL, the solubility at 24 h ([1]; water/PEG 200 (50/50), aqueous with cosolvent or surfactant or cyclodextrin) was 23000 µg/mL and the solubility at 24 h ([1]; water/glycerin/trolamine (40/40/20), aqueous with cosolvent or surfactant or cyclodextrin) was 18000 µg/mL.
